Measured values as given in publication PMC8763243, “Synthesis of Novel Suramin Analogs With Anti-Proliferative Activity via FGF1 and FGFRD2 Blockade” (Frontiers in Chemistry, 2022).
Several values for one entry are separate records, joined by “and”; a condition that tells them apart may be missing. Equal values may be shown once.

Assays:
[1] = WST-1 assay, cytotoxicity in tumorigenic cells; format: cell-based, human; details: human; MCF-7 cells, 48 h, SigmaPlot; read-out: estimated IC50 (cytotoxicity)
Protocol: (§1) The water-soluble tetrazolium salt (WST-1) assay was performed to assess the effects of the compounds on cell proliferation and cytotoxicity. DMEM/F12 containing 10% FBS was used for the cell culture, and incubation was performed in 5% CO2 till the logarithmic growth phase was achieved. On the day before the experiment, the cells were trypsinized and seeded in a 96-well plate at a density of 5000 cells/well. For the FGF1-stimulated cell proliferation assay, the cells were then incubated for 24 h in a serum-free medium containing 0.1% bovine serum albumin (BSA). Serum-starved cells with or without a specified concentration of suramin, 14, 15, 17, 18, 21, and FGFRD2 were stimulated with 100 nM of FGF1 again for 48 h. For the purpose of the cytotoxicity assay, the cells were treated with an increased concentration of suramin and compounds 14, 17, 15, 18, and 21 (Figure 6) for 48 h. Also, 1/10 of the volume of WST-1 cell reagent was inserted in every well and maintained at 37°C for another 4 h before harvesting. There was gentle agitation of the medium in the cell culture plate for 10 min using a shaker. A Synergy 2 microplate reader (BioTek Instruments, Inc., VT, United States) was used to measure the absorbance at 450 nm. The relative absorbance was compared with the control treatment to determine the relative cell number.
(§2) […] […] The reason for the higher cytotoxicity was the presence of methyl groups on the suramin structure ([Martello et al., 2001]).
(§3) Suramin-induced neuropathy may depend on the effects on calcium (Ca^2+) homeostasis as a potential pathological mechanism, and the full or partial positive charge of the element when directly attached to the ring at each of the sulphonic groups (HSO3). These interactions exert a moderate to strong electron-withdrawing inductive effect, which may be responsible for the observed suramin cytotoxicity ([Prasetyaningrum et al., 2018]; [Von Der Ahe et al., 2018]). The cytotoxicity of the synthesized analogs was lower as there were methyl groups and no sulfonic acid groups attached to the suramin backbone. The IC50 values of the synthesized compounds in MCF-7 breast cancer cells were analyzed using SigmaPlot software.

[2] = test system: MCF-7 cells; experiment: WST-1 assay, cytotoxicity in tumorigenic cells; format: cell-based, human; details: for Mean (Blank 450) / Fold (mean) / Blank 450 / Fold: S8; for Fold (mean): relative to control; for Blank 450: single replicate absorbance; for Fold: single replicate relative to control; for cytotoxicity compared with suramin: MCF-7 cells, 1-100 µM, 48 h, especially at concentrations higher than 10 µM
Protocol: as §1, §2, §3

[3] = target: T1, FGF1 (Homo sapiens, UniProt P05230); experiment: Fluorescence spectroscopy binding constant of FGF1 and suramin derivatives; details: fluorescence quenching, 5 µM FGF1, non-linear regression with Stern–Volmer equation, pH 6.5
T1 construct: made in house
T1 sequence (P05230 whole entry): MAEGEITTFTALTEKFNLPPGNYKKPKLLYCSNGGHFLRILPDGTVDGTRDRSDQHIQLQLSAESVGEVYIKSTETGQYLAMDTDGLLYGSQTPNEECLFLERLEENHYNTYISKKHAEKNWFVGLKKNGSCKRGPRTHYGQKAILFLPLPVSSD
Protocol: The binding constant Kd was calculated for FGF1 and the five derivatives in a buffer containing 10% D2O, 50 mM AMS, 20 mM phosphate buffer, and 50 mM NaCl at pH 6.5 using an F-2500 Hitachi fluorescence spectrophotometer.
[…] has tremendous significance for biochemical application because it provides valuable knowledge about the probability of quencher activity. The anti-mitogenic activity of the five compounds was achieved by the same mechanism in which suramin inhibits the mitogenic activity of FGF1. A non-linear regression curve was plotted for the relative intensities of activity versus drug concentration using the Stern–Volmer equation (Eq. 1). log(F0−F)/F=logK+nlog[Q], (1)
where F0 represents the fluorescence intensity in the absence of the compounds, and F represents the fluorescence intensity in the presence of the [Q] concentration of the compounds.
Increasing concentrations of these five suramin derivatives were added to a solution containing 5 µM FGF1. A reduction in the fluorescence intensity was reported for all five suramin derivatives. The Stern–Volmer equation was used to calculate the binding constant between FGF1 and compounds 14, 15, 17, 18, and 21 for relative intensities versus the total concentration in a non-linear regression curve.

[4] = WST-1 assay, cytotoxicity in normal breast epithelial cell line (non-tumorigenic); format: cell-based; details: human; non-tumorigenic MCF-10A cells; read-out: estimated IC50 (cytotoxicity)
Protocol: as §1
In order to gain some insight about the selectivity of the compounds between tumorigenic and non-tumorigenic cells, the cytotoxicity was also being evaluated against normal breast cell lines by examining the cytotoxicity of suramin and its derivatives, compounds 15, 18, and 21, in a normal breast epithelial cell line (non-tumorigenic), MCF-10A. […] Compared to their cytotoxicity in tumorigenic MCF-7 cells (Figure 6), the estimated IC50 values in MCF-10A were higher than those in MCF-7 cells. […] However, the estimated IC50 value of suramin and its derivatives in both non-tumorigenic MCF-10A and tumorigenic MCF-7 cells were over 100 μM. The effective concentrations of suramin and its derivatives to attenuate FGF1-stimulated cell proliferation in MCF-7 cells were around 1 μM (Figure 5), which is non-toxic concentration to both MCF-7 cells and MCF-10A cells. […] Therefore, in addition to the specificity of each drug, the selectivity of suramin and its derivatives to disrupt the FGF1/FGFR-mediated breast cancer growth might rely on the overexpression or amplification of FGFR2 in breast cancer cells, but not in normal cells, and the secreted FGF1 ligand by autocrine or paracrine effects from cancer cells or their surrounding stroma cells or adipocytes (tumor microenvironment). The statistical data for the cytotoxicity are shown in Supplementary Figure S8.

[5] = Exposure stability study by 1H NMR in DMSO-d6 and D2O; format: physicochemical; details: 0.017 mol/L in DMSO-d6 and D2O, 11 days
Protocol: The stability of the compounds was verified in both aqueous and DMSO solutions. In aqueous medium, the stability of the suramin derivatives 15 and 18 were considered to verify the stability. A control experiment consisting of a DMSO-d 6 (0.017 mol/L) solution of 15 and a D2O solution of 15 (0.017 mol/L) was maintained on the laboratory bench. All experiments were performed in NMR tubes containing 0.017 mol/L solutions of compounds 15 and 18 in DMSO-d 6 and D2O, respectively. NMR spectra were recorded over 11 days (initially daily for 1 week).
10 mg of the newly synthesized compound was diluted in 500 µL DMSO-d 6 under investigation in a 5-mm NMR tube. The procedure was maintained as it is for 11 days in the solution. The ^1H NMR spectrum was recorded daily for 4 days up to 11 days.
10 mg of the novel compound was diluted in 500 µL D2O under investigation in a 5-mm NMR tube. The procedure was maintained as it is for 11 days in the solution. The ^1H NMR spectrum was recorded daily for 4 days up to 11 days.

SMILES	IC50 at 48 h [1] [µM]	Mean (Blank 450) ([2]; 1 uM)	Fold (mean) ([2]; 1 uM)	Blank 450 ([2]; 1 uM)	Fold ([2]; 1 uM)	Mean (Blank 450) ([2]; 5 uM)	Fold (mean) ([2]; 5 uM)	Blank 450 ([2]; 5 uM)	Fold ([2]; 5 uM)	Mean (Blank 450) ([2]; 10 uM)	Fold (mean) ([2]; 10 uM)	Blank 450 ([2]; 10 uM)	Fold ([2]; 10 uM)	Mean (Blank 450) ([2]; 50 uM)	Fold (mean) ([2]; 50 uM)	Blank 450 ([2]; 50 uM)	Fold ([2]; 50 uM)	Mean (Blank 450) ([2]; 100 uM)	Fold (mean) ([2]; 100 uM)	Blank 450 ([2]; 100 uM)	also measured
O=C(Nc1ccc(C(=O)Nc2cc(S(=O)(=O)[O-])cc3cc(S(=O)(=O)[O-])cc(S(=O)(=O)[O-])c23)cc1)Nc1ccc(C(=O)Nc2cc(S(=O)(=O)[O-])cc3cc(S(=O)(=O)[O-])cc(S(=O)(=O)[O-])c23)cc1.[Na+].[Na+].[Na+].[Na+].[Na+].[Na+] [Compound 15, Sodium 8,8'-((4,4'-(carbonylbis (azanediyl))bis (benzoyl))bis (azanediyl))bis (naphthalene-1,3,6-trisulfonate)]	> 100	1.163	1.00	1.143 and 1.162 and 1.195 and 1.152	0.981 and 0.997 and 1.026 and 0.989	1.146	0.98	1.161 and 1.116 and 1.206 and 1.101	0.996 and 0.958 and 1.035 and 0.945	1.122	0.96	1.151 and 1.117 and 1.059 and 1.162	0.988 and 0.959 and 0.909 and 0.997	0.982	0.84	0.998 and 1.012 and 0.955 and 0.961	0.856 and 0.868 and 0.820 and 0.825	0.880	0.75	0.927 and 0.887 and 0.833 and 0.872	Fold ([2]; 100 uM): 0.796 and 0.761 and 0.715 and 0.748; cytotoxicity compared with suramin [2]: less toxic; Kd [3]: 20.9 µM; IC50 at 48 h [4]: 221 ± 3.57 µM; stability in solution (1H NMR) [5]: remarkably stable
O=C(Nc1ccc(C(=O)Nc2ccc(C(=O)Nc3cc(S(=O)(=O)O)cc4cc(S(=O)(=O)O)cc(S(=O)(=O)O)c34)cc2)cc1)Nc1ccc(C(=O)Nc2ccc(C(=O)Nc3cc(S(=O)(=O)O)cc4cc(S(=O)(=O)O)cc(S(=O)(=O)O)c34)cc2)cc1 [Compound 18, Sodium 8,8'-((4,4'-((4,4'-(carbonylbis (azanediyl))bis (benzoyl))bis (azanediyl))bis (benzoyl))bis(azanediyl)) bis (naphthalene-1,3,6-trisulfonate)]	> 100	1.224	1.05	1.234 and 1.224 and 1.182 and 1.256	1.059 and 1.050 and 1.014 and 1.078	1.176	1.01	1.176 and 1.214 and 1.141 and 1.173	1.009 and 1.042 and 0.979 and 1.007	1.160	1.00	1.108 and 1.161 and 1.207 and 1.165	0.951 and 0.996 and 1.036 and 1.000	1.139	0.98	1.184 and 1.149 and 1.053 and 1.169	1.016 and 0.986 and 0.904 and 1.003	1.057	0.91	1.098 and 1.004 and 1.043 and 1.081	Fold ([2]; 100 uM): 0.942 and 0.862 and 0.895 and 0.928; cytotoxicity compared with suramin [2]: less toxic; Kd [3]: 15.5 µM; IC50 at 48 h [4]: 653.4 ± 2.31 µM; stability in solution (1H NMR) [5]: remarkably stable
